± gives the uncertainty stated by the source.
Assay: xn = mol fraction of the nth substance listed

CNC=O + CCCO
viscosity [mPa·s], 101 kPa
Details | x2 = 0.1009 | x2 = 0.2001 | x2 = 0.3003 | x2 = 0.4003 | x2 = 0.5005 | x2 = 0.6 | x2 = 0.7001 | x2 = 0.8009 | x2 = 0.9007
303.15 K | 1.545 ± 0.015 | 1.51 ± 0.014 | 1.475 ± 0.014 | 1.454 ± 0.013 | 1.441 ± 0.013 | 1.444 ± 0.013 | 1.464 ± 0.013 | 1.52 ± 0.014 | 1.605 ± 0.015
308.15 K | 1.423 ± 0.014 | 1.389 ± 0.013 | 1.357 ± 0.013 | 1.336 ± 0.012 | 1.322 ± 0.012 | 1.321 ± 0.012 | 1.337 ± 0.012 | 1.381 ± 0.013 | 1.448 ± 0.013
313.15 K | 1.316 ± 0.013 | 1.284 ± 0.012 | 1.252 ± 0.012 | 1.231 ± 0.011 | 1.216 ± 0.011 | 1.213 ± 0.011 | 1.225 ± 0.011 | 1.258 ± 0.011 | 1.31 ± 0.012
318.15 K | 1.22 ± 0.012 | 1.189 ± 0.011 | 1.158 ± 0.011 | 1.138 ± 0.011 | 1.123 ± 0.01 | 1.118 ± 0.01 | 1.124 ± 0.01 | 1.149 ± 0.01 | 1.188 ± 0.011
323.15 K | 1.134 ± 0.011 | 1.105 ± 0.011 | 1.075 ± 0.01 | 1.054 ± 0.0099 | 1.036 ± 0.0097 | 1.03 ± 0.0095 | 1.034 ± 0.0095 | 1.051 ± 0.0097 | 1.079 ± 0.01

C/C=C/C(=O)OCC + CCO
viscosity [mPa·s], 101 kPa
Details | x1 = 0.0991 | x1 = 0.1985 | x1 = 0.2994 | x1 = 0.3961 | x1 = 0.5006 | x1 = 0.6 | x1 = 0.6968 | x1 = 0.7816 | x1 = 0.8996
293.15 K | 1.026 ± 0.0082 | 0.929 ± 0.0077 | 0.9257 ± 0.0078 | 0.9219 ± 0.008 | 0.878 ± 0.0079 | 0.8293 ± 0.0078 | 0.8016 ± 0.0079 | 0.8351 ± 0.0084 | 0.8122 ± 0.0087
298.15 K | 0.9334 ± 0.0076 | 0.8523 ± 0.0071 | 0.8465 ± 0.0072 | 0.8404 ± 0.0074 | 0.8061 ± 0.0074 | 0.7663 ± 0.0073 | 0.7402 ± 0.0073 | 0.7648 ± 0.0078 | 0.7535 ± 0.0081
303.15 K | 0.8498 ± 0.007 | 0.7812 ± 0.0066 | 0.7751 ± 0.0067 | 0.7739 ± 0.0069 | 0.7411 ± 0.0068 | 0.7061 ± 0.0068 | 0.6855 ± 0.0069 | 0.7052 ± 0.0073 | 0.7 ± 0.0076
313.15 K | 0.7166 ± 0.0061 | 0.6615 ± 0.0058 | 0.6607 ± 0.0059 | 0.6588 ± 0.006 | 0.6372 ± 0.006 | 0.6091 ± 0.006 | 0.5958 ± 0.0061 | 0.6134 ± 0.0064 | 0.6108 ± 0.0067
323.15 K | 0.6156 ± 0.0053 | 0.5747 ± 0.0051 | 0.5702 ± 0.0052 | 0.5686 ± 0.0053 | 0.5537 ± 0.0053 | 0.5363 ± 0.0054 | 0.5284 ± 0.0055 | 0.5414 ± 0.0058 | 0.5401 ± 0.006

CCCC[n+]1ccn(C)c1.O=[N+]([O-])[O-] + CCO
101 kPa
Details | viscosity [mPa·s]
293.15 K, x1 = 0.8 | 73.11 ± 12
303.15 K, x1 = 0.6 | 22.05 ± 2.2

CCOS(=O)(=O)[O-].CC[N+](CC)=C(N(C)C)N(C)C + CCO
viscosity [mPa·s], 100 kPa
Details | x1 = 0.1001 | x1 = 0.2003 | x1 = 0.2998 | x1 = 0.4023 | x1 = 0.4998 | x1 = 0.6016 | x1 = 0.6979 | x1 = 0.8024 | x1 = 0.8974
293.15 K | 2.916 ± 0.024 | 5.857 ± 0.048 | 11.49 ± 0.09 | 20.43 ± 0.17 | 32.82 ± 0.29 | 54.53 ± 0.43 | 82.56 ± 1.6 | 121 ± 3.8 | 160.5 ± 6.6
298.15 K | 2.62 ± 0.021 | 5.197 ± 0.042 | 9.941 ± 0.081 | 17.2 ± 0.14 | 27.12 ± 0.23 | 43.51 ± 0.41 | 64.03 ± 0.74 | 91.64 ± 2 | 119.1 ± 3.6
303.15 K | 2.373 ± 0.019 | 4.64 ± 0.038 | 8.688 ± 0.071 | 14.71 ± 0.12 | 22.61 ± 0.19 | 35.19 ± 0.32 | 50.61 ± 0.37 | 70.75 ± 1 | 90.75 ± 2
308.15 K | 2.155 ± 0.017 | 4.166 ± 0.034 | 7.649 ± 0.062 | 12.71 ± 0.1 | 19.18 ± 0.16 | 29.07 ± 0.25 | 40.85 ± 0.39 | 55.99 ± 0.49 | 70.53 ± 1
313.15 K | 1.964 ± 0.016 | 3.765 ± 0.03 | 6.793 ± 0.055 | 11.08 ± 0.09 | 16.48 ± 0.14 | 24.39 ± 0.21 | 33.63 ± 0.3 | 45.19 ± 0.45 | 56.15 ± 0.5
318.15 K | 1.797 ± 0.014 | 3.419 ± 0.028 | 6.036 ± 0.049 | 9.76 ± 0.08 | 14.28 ± 0.12 | 20.68 ± 0.18 | 27.81 ± 0.24 | 36.81 ± 0.35 | 45.06 ± 0.45
323.15 K | 1.649 ± 0.013 | 3.118 ± 0.025 | 5.43 ± 0.044 | 8.634 ± 0.071 | 12.47 ± 0.1 | 17.74 ± 0.15 | 23.62 ± 0.2 | 30.6 ± 0.28 | 36.93 ± 0.35
